Columns and labels:
[1] = molecular target: C-C chemokine receptor type 5 (Homo sapiens, UniProt P51681); assay: Displacement of labeled MIP-1beta from human CCR5 receptor
[2] = molecular target: C-C chemokine receptor type 2 (Homo sapiens) (UniProt P41597); assay: Displacement of [125I]MCP1 from human CCR2 at 1000 nM after 30 mins by gamma counting
[3] = Volume of distribution at steady state in cynomolgus monkey at […], iv and 10 mg/kg, po; type: ADME, organism-based, Macaca fascicularis; conditions: in vivo, read-out: Vdss
[4] = AUC in rat at 10 mg/kg, po; type: ADME, organism-based; design: dose 10 mg/kg, route oral; conditions: plasma
[5] = Half life in cynomolgus monkey at […], iv; type: ADME, organism-based, Macaca fascicularis; design: dose 2.5 mg/kg, route intravenous; conditions: in vivo
[6] = Clearance in rat at 5 mg/kg, iv and 10 mg/kg, po; type: ADME, organism-based; conditions: in vivo
[7] = AUC in cynomolgus monkey at 10 mg/kg, po; type: ADME, organism-based, Macaca fascicularis; design: dose 10 mg/kg, route oral; conditions: plasma
[8] = Oral bioavailability in rat at 10 mg/kg; type: ADME, organism-based; conditions: in vivo
[9] = Half life in rat at 5 mg/kg, iv; type: ADME, organism-based; design: dose 5 mg/kg, route intravenous; conditions: in vivo
[10] = Half life in human liver microsomes; type: ADME, Microsome
[11] = Volume of distribution at steady state in rat at 5 mg/kg, iv and 10 mg/kg, po; type: ADME, organism-based; conditions: in vivo, read-out: Vdss
[12] = Clearance in cynomolgus monkey at […], iv and 10 mg/kg, po; type: ADME, organism-based, Macaca fascicularis; conditions: in vivo
[13] = Oral bioavailability in cynomolgus monkey at 10 mg/kg; type: ADME, organism-based, Macaca fascicularis; conditions: in vivo

Sequence of C-C chemokine receptor type 5 (P51681 whole entry): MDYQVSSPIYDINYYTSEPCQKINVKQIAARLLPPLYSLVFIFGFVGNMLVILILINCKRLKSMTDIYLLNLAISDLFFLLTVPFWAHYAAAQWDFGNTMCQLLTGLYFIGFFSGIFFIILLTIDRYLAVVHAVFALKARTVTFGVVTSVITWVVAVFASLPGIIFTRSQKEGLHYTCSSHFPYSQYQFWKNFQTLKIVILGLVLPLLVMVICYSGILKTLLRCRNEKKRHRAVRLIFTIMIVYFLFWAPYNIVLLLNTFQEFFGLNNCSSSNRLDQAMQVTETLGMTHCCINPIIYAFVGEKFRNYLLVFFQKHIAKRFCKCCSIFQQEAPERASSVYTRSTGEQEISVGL
Sequence of C-C chemokine receptor type 2 (Homo sapiens) (P41597 whole entry, looked up): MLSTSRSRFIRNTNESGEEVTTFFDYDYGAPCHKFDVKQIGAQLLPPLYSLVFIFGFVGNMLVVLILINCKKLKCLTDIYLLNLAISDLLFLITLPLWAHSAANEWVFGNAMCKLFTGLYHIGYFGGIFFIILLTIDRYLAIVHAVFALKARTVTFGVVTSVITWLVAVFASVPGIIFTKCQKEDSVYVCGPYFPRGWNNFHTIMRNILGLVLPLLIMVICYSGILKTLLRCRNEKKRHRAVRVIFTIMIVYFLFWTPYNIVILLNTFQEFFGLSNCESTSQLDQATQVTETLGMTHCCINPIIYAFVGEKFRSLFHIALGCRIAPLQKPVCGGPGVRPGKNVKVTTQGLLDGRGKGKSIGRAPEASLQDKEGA

Compound	IC50 [1]	further results
CC(C)[C@]1(C(=O)N2CCN(c3cccc(C(F)(F)F)c3)CC2)CC[C@@H](N[C@H]2CCOC[C@@H]2C)C1	370 nM	
CCO[C@@H]1COCC[C@@H]1N[C@@H]1CC[C@@](C(=O)N2CCN(c3cccc(C(F)(F)F)c3)CC2)(C(C)C)C1	22.5 nM	
CC(C)[C@]1(C(=O)N2CCN(c3cccc(C(F)(F)F)c3)CC2)CC[C@@H](N[C@@H]2CCOC[C@@H]2C)C1	108 nM	
CC(C)[C@]1(C(=O)N2CCC(c3ccccc3)CC2)CC[C@@H](NC2CCOCC2)C1		inhibition [2]: 0%
CC(C)[C@]1(C(=O)N2CCN(c3ccccc3C(F)(F)F)CC2)CC[C@@H](NC2CCOCC2)C1		inhibition [2]: 19%
CO[C@@H]1COCC[C@@H]1N[C@@H]1CC[C@@](C(=O)N2CCN(c3cccc(C(F)(F)F)c3)CC2)(C(C)C)C1	23 nM	
CCO[C@H]1COCC[C@H]1N[C@@H]1CC[C@@](C(=O)N2CCN(c3cccc(C(F)(F)F)c3)CC2)(C(C)C)C1	206 nM	
CC(C)[C@]1(C(=O)N2CCN(c3ccc(C(F)(F)F)cc3)CC2)CC[C@@H](NC2CCOCC2)C1		inhibition [2]: 40%
CC(C)[C@]1(C(=O)N2CCN(c3cccc(C(F)(F)F)c3)CC2)CC[C@@H](N[C@@H]2CCOC[C@H]2C)C1	> 1000 nM	
CO[C@@H]1COCC[C@@H]1N[C@@H]1CC[C@@](C(=O)N2CCN(c3cc(C(F)(F)F)ccn3)CC2)(C(C)C)C1		Vd [3]: 6.2 L/kg; AUC [4]: 3 µM·h; half-life [5]: 3 h; clearance [6]: 63.3 mL/min/kg; AUC [7]: 5.3 µM·h; bioavailability [8]: 84%; half-life [9]: 5 h; half-life [10]: 1.55 h; Vd [11]: 17 L/kg; clearance [12]: 36.7 mL/min/kg; bioavailability [13]: 57%
CO[C@H]1COCC[C@H]1N[C@@H]1CC[C@@](C(=O)N2CCN(c3cccc(C(F)(F)F)c3)CC2)(C(C)C)C1	204 nM	
CC[C@H]1COCC[C@H]1N[C@@H]1CC[C@@](C(=O)N2CCN(c3cccc(C(F)(F)F)c3)CC2)(C(C)C)C1	312 nM	
CC[C@@H]1COCC[C@H]1N[C@@H]1CC[C@@](C(=O)N2CCN(c3cccc(C(F)(F)F)c3)CC2)(C(C)C)C1	1000 nM	
CC[C@H]1COCC[C@@H]1N[C@@H]1CC[C@@](C(=O)N2CCN(c3cccc(C(F)(F)F)c3)CC2)(C(C)C)C1	546 nM	
CC[C@@H]1COCC[C@@H]1N[C@@H]1CC[C@@](C(=O)N2CCN(c3cccc(C(F)(F)F)c3)CC2)(C(C)C)C1	18 nM	
COC[C@H]1COCC[C@H]1N[C@@H]1CC[C@@](C(=O)N2CCN(c3cccc(C(F)(F)F)c3)CC2)(C(C)C)C1	572 nM	
CO[C@@H]1COCC[C@@H]1N[C@@H]1CC[C@](CC(F)(F)F)(C(=O)N2CCN(c3cc(C(F)(F)F)ccn3)CC2)C1	8.4 nM	
CO[C@@H]1COCC[C@@H]1N[C@@H]1CC[C@@](C(=O)N2CCN(c3cccc(C(F)(F)F)n3)CC2)(C(C)C)C1	26.5 nM	
COC[C@@H]1COCC[C@@H]1N[C@@H]1CC[C@@](C(=O)N2CCN(c3cccc(C(F)(F)F)c3)CC2)(C(C)C)C1	201 nM	
CC(C)[C@]1(C(=O)N2CCN(c3cccc(C(F)(F)F)c3)CC2)CC[C@@H](NC2CCOCC2)C1	283 nM	
CC(C)[C@]1(C(=O)N2CCN(c3cccc(C(F)(F)F)c3)CC2)CC[C@@H](N[C@H]2CCOC[C@H]2C)C1	77 nM	

— ChEMBL document CHEMBL1681668, “Discovery of INCB10820/PF-4178903, a potent, selective, and orally bioavailable dual CCR2 and CCR5 antagonist” (Bioorg Med Chem Lett, 2011)
